The text below walks through data of ChEMBL document CHEMBL4400559, “Exploiting the furo[2,3-b]pyridine core against multidrug-resistant Mycobacterium tuberculosis” (Bioorg Med Chem Lett, 2019).

For data set [1], the system named is Mycobacterium tuberculosis. In words: Antibacterial activity against Mycobacterium tuberculosis H37Rv ATCC 27294 after 7 days by resazurin microtiter assay. The data set is classed as functional. The following applies: H37Rv ATCC 27294, 168 h. (In general: The colour change of resazurin is a common sign of viable cells or microbes.)
The test system of the next data set is J774.A1. In words: Cytotoxicity against mouse J774A.1 cells after 24 hrs by resazurin dye-based fluorescence assay. Format: cell-based. The following applies: J774.A1, 24 h.
The test system of another data set is MRC5. In words: Cytotoxicity against human MRC5 cells after 24 hrs by resazurin dye-based fluorescence assay. Format: cell-based. The following applies: MRC5, 24 h.
Data set [2] in a line: Selectivity index, ratio of IC50 for mouse J774A.1 cells to MIC90 for Mycobacterium tuberculosis H37Rv ATCC 27294. Format: toxicity. The following applies: read-out: Selectivity Index.
A short description of data set [3]: Selectivity index, ratio of IC50 for human MRC5 cells to MIC90 for Mycobacterium tuberculosis H37Rv ATCC 27294. The following applies: read-out: Selectivity Index. The data set is classed as toxicity.

Broadly, the MIC90 is an inhibitory concentration at the 90% level, which refers to growth in some studies and to a panel of isolates in others. Low readings indicate higher susceptibility, high ones lower susceptibility. Usually IC50 stands for the point on the concentration scale where inhibition reaches its midpoint.

In brackets after ≈: the same amount, converted by molar mass. Some results are limits rather than exact numbers.

`CO[C@H]1/C=C/O[C@@]2(C)Oc3c(C)c(O)c4c(O)c(c(/C=N/N5CCN(C)CC5)c(O)c4c3C2=O)NC(=O)/C(C)=C\C=C\[C@H](C)[C@H](O)[C@@H](C)[C@@H](O)[C@@H](C)[C@H](OC(C)=O)[C@@H]1C` [RIFAMPIN] came in with an MIC90 in data set [1] of 0.06 µM (≈ 0.0494 µg/mL). This lies in the double-digit nanomolar range.

On to `CCCSc1cnc2oc(C(C)C)c(C(=O)OCC)c2c1`, for which the MIC90 in data set [1] is more than 81.3 µM.

The molecule `CCCSc1ccc2c(C(=O)OCC)c(C(C)C)oc2n1` displayed an MIC90 in data set [1] of more than 81.3 µM.

The molecule `CCOC(=O)c1c(C(C)C)oc2nc(N3CCN(c4ccccc4)CC3)ccc12` gave an MIC90 in data set [1] of more than 63.6 µM.

`CNC(=O)c1c(C(C)C)oc2nc(N3CCCC3)ccc12` displayed an MIC90 in data set [1] of more than 87 µM.

Take `CC(C)c1oc2nc(N3CCCC3)ccc2c1C(=O)O`: the MIC90 in data set [1] is more than 91.1 µM.

With `CCOC(=O)c1c(C(C)C)oc2nccc(N3CCN(c4ccc(Cl)cc4)CC3)c12`, the concentration for half-maximal inhibition (IC50) in the data set on J774.A1 is more than 234 µM. For the same molecule, the MIC90 in data set [1] was more than 58.5 µM.

`CCOC(=O)c1c(C(C)C)oc2nc(N3CCCC3)ccc12`: the IC50 in the data set on MRC5 and in the data set with J774.A1 was more than 331 µM in each case. Further, the selectivity ratio in data set [2] and in data set [3] was more than 10.1 each time. The same molecule displayed an MIC90 in data set [1] of 32.8 µM (≈ 9.92 µg/mL).

Molecule `CCOC(=O)c1c(C(C)C)oc2nccc(N3CCOCC3)c12` returned a concentration for half-maximal inhibition (IC50) with J774.A1 of 215 µM. This molecule also returned an MIC90 in data set [1] of more than 78.5 µM.

Turning to `CCOC(=O)c1c(-c2ccccc2)oc2ncc(N3CCCC3)cc12`, the IC50 with MRC5 is more than 298 µM. This molecule also registered an MIC90 in data set [1] of more than 74.4 µM.

Regarding `CCOC(=O)c1c(C(C)C)oc2nccc(N3CCN(c4ccccc4)CC3)c12`, 235 µM corresponded to half-maximal inhibition in the data set with J774.A1 (IC50). In addition, in data set [1], the MIC90 was more than 63.6 µM.

Turning to `NNC(=O)c1ccncc1` [ISONIAZID], the MIC90 in data set [1] came out at 0.8 µM (≈ 0.11 µg/mL).

`CCOC(=O)c1c(C)oc2nc(N3CCN(c4ccccc4)CC3)ccc12` gave an MIC90 in data set [1] of more than 68.5 µM.

In the data set with MRC5, `CCOC(=O)c1c(C)oc2nc(N3CC[C@@H](F)C3)ccc12` had a concentration for half-maximal inhibition (IC50) of more than 342 µM. The molecule also had an MIC90 in data set [1] of more than 85.6 µM.

Turning to `CCOC(=O)c1c(C)oc2nc(N3CCCC3)ccc12`, the IC50 in the data set on MRC5 was more than 364 µM; with J774.A1 it was 196 µM. For the same molecule, the selectivity ratio in data set [2] is 18.7; in data set [3], more than 34.7. In data set [1], this molecule returned an MIC90 of 10.5 µM (≈ 2.88 µg/mL).

Consider `CCOC(=O)c1c(C)oc2nc(N3CCOCC3)ccc12`, for which the MIC90 in data set [1] was more than 86.1 µM.

In data set [1], `Cc1oc2nc(N3CCCC3)ccc2c1C(=O)O` came in with an MIC90 of more than 102 µM.

For `CCOC(=O)c1c(C(C)C)oc2nc(N3CCOCC3)ccc12`, the MIC90 in data set [1] was more than 78.5 µM.

Molecule `CCCCNc1cnc2oc(C(C)C)c(C(=O)OCC)c2c1` yielded an MIC90 in data set [1] of more than 82.1 µM.

With `CCOC(=O)c1c(C)oc2ncc(N3CCCC3)cc12`, the IC50 with MRC5 is more than 364 µM; in the data set on J774.A1, 260 µM. Also, the selectivity ratio in data set [2] was 3.2; in data set [3], more than 4.4. In data set [1], this molecule returned an MIC90 of 82.3 µM (≈ 22.6 µg/mL).

`CCCCNc1ccc2c(C(=O)OCC)c(C(C)C)oc2n1`: the IC50 in the data set with MRC5 and with J774.A1 was more than 328 µM throughout. In addition, the selectivity ratio in data set [2] and in data set [3] was more than 14.2 in each case. In data set [1], this molecule displayed an MIC90 of 23.2 µM (≈ 7.06 µg/mL).

With `CCOC(=O)c1c(C)oc2nccc(N3CCOCC3)c12`, in the data set with J774.A1, the IC50 is more than 314 µM. Further, the MIC90 in data set [1] was more than 86.1 µM.

Turning to `CCOC(=O)c1c(C)oc2nccc(N3CCN(c4ccccc4)CC3)c12`, the concentration for half-maximal inhibition (IC50) in the data set on J774.A1 came out at 120 µM. For the same molecule, the MIC90 in data set [1] was more than 68.5 µM.

The molecule `CNC(=O)c1c(-c2ccc(O)cc2)oc2ccc(O)c(CN3CCCCC3)c12` showed an MIC90 in data set [1] of 0.09 µM (≈ 0.0342 µg/mL). This lies in the double-digit nanomolar range.

`CC[C@@H](CO)NCCN[C@@H](CC)CO` [ETHAMBUTOL] had an MIC90 in data set [1] of 7 µM (≈ 1.43 µg/mL).

In data set [1], `NCC[C@H](O)C(=O)N[C@@H]1C[C@H](N)[C@@H](O[C@H]2O[C@H](CN)[C@@H](O)[C@H](O)[C@H]2O)[C@H](O)[C@H]1O[C@H]1O[C@H](CO)[C@@H](O)[C@H](N)[C@H]1O` [AMIKACIN] yielded an MIC90 of 0.4 µM (≈ 0.234 µg/mL).

`N[C@@H]1CONC1=O` [CYCLOSERINE] had an MIC90 in data set [1] of 37.1 µM (≈ 3.79 µg/mL).

`CCOC(=O)c1c(-c2ccccc2)oc2nc(N3CCCC3)ccc12`: in the data set with MRC5, the half-maximal inhibitory concentration (IC50) is more than 298 µM. This molecule also displayed an MIC90 in data set [1] of more than 74.4 µM.

`CCOC(=O)c1c(C(C)C)oc2nc(N3CCN(c4ccc(Cl)cc4)CC3)ccc12`: the MIC90 in data set [1] is more than 58.5 µM.

The molecule `CNC(=O)c1c(C)oc2nc(N3CCCC3)ccc12` returned an MIC90 in data set [1] of more than 96.4 µM.

In data set [1], `COc1c(N2C[C@@H]3CCCN[C@@H]3C2)c(F)cc2c(=O)c(C(=O)O)cn(C3CC3)c12` [MOXIFLOXACIN] displayed an MIC90 of less than 0.2 µM.

Turning to `CCOC(=O)c1c(C)oc2ncc(N3CC[C@@H](F)C3)cc12`, the 50% inhibitory concentration (IC50) in the data set on MRC5 was more than 342 µM. In addition, the MIC90 in data set [1] was more than 85.6 µM.
